Literature values, collected in patent US10864334B2, “Nasal delivery” (OptiNose AS, priority 2006, dated 2020).
Read-outs that look alike come from different tables or passages of the source.

Legend:
[1] = in vivo
[2] = intranasal; aqueous spray versus nasal drops; systemic bio-availability

Structure (SMILES)	bio-availability of the nasal spray formulation relative to the nasal drop formulation [1]	bio-availability of the nasal spray formulation relative to the nasal drop formulation [2]
NC(=O)CC[C@@H]1NC(=O)[C@H](Cc2ccccc2)NC(=O)[C@H](Cc2ccc(O)cc2)NC(=O)CCSSC[C@@H](C(=O)N2CCC[C@H]2C(=O)N[C@H](CCCN=C(N)N)C(=O)NCC(N)=O)NC(=O)[C@H](CC(N)=O)NC1=O [desmopressin]	two to three times higher	–
CCC(=O)O[C@]1(C(=O)SCF)[C@H](C)C[C@H]2[C@@H]3C[C@H](F)C4=CC(=O)C=C[C@]4(C)[C@@]3(F)[C@@H](O)C[C@@]21C [fluticasone propionate]	–	about eight times higher
